Measured values reported in the supplement of paper PMC3937590.

Assays:
Assay in all cases: -log10 GI50 (growth inhibition 50%) (-log10(M)); higher = more potent growth inhibition
184A1 = system: 184A1
Outline: (§1)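 A value carrying a < qualifier equals the top dose tested. Each compound was tested in triplicate on breast cancer cell lines for 72 hours at nine doses in 1:5 serial dilution, using a luminescence read-out against a time-zero plate. Nonlinear least squares fitting of a Gompertz curve gave GI50, the molar concentration causing the set level of growth inhibition, which is reported as its negative logarithm. The logarithm is base 10.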

MDAMB157 = system: MDAMB157
Outline: as §1

MDAMB175VII = system: MDAMB175VII
Outline: as §1

HCC1954 = system: HCC1954
Outline: as §1

HCC2185 = system: HCC2185
Outline: as §1

MDAMB231 = system: MDAMB231
Outline: as §1

MCF7 = system: MCF7
Outline: as §1

HCC1428 = system: HCC1428
Outline: as §1

T47D = system: T47D
Outline: as §1

BT474 = system: BT474
Outline: as §1

SUM1315MO2 = system: SUM1315MO2
Outline: as §1

SUM159PT = system: SUM159PT
Outline: as §1

HCC3153 = system: HCC3153
Outline: as §1

BT483 = system: BT483
Outline: as §1

SUM185PE = system: SUM185PE
Outline: as §1

SUM225CWN = system: SUM225CWN
Outline: as §1

MDAMB415 = system: MDAMB415
Outline: as §1

LY2 = system: LY2
Outline: as §1

600MPE = system: 600MPE
Outline: as §1

HCC1937 = system: HCC1937
Outline: as §1

Structure (SMILES) | -log10 GI50 (184A1) | -log10 GI50 (MDAMB157) | -log10 GI50 (MDAMB175VII) | -log10 GI50 (HCC1954) | -log10 GI50 (HCC2185) | -log10 GI50 (MDAMB231) | -log10 GI50 (MCF7) | -log10 GI50 (HCC1428) | -log10 GI50 (T47D) | -log10 GI50 (BT474) | -log10 GI50 (SUM1315MO2) | -log10 GI50 (SUM159PT) | -log10 GI50 (HCC3153) | -log10 GI50 (BT483) | -log10 GI50 (SUM185PE) | -log10 GI50 (SUM225CWN) | -log10 GI50 (MDAMB415) | -log10 GI50 (LY2) | -log10 GI50 (600MPE) | -log10 GI50 (HCC1937)
CCNCCCCNCCCCNCCCCNCCCCNC/C=C/CNCCCCNCCCCNCCCCNCCCCNCC | 6.32 | 6.97 | 6.79 | 6.57 | 6.6 | 4.67 | 6.33 | 6.33 | 6.97 | 6.02 | 5.69 | 6.6 | 6.72 | 6.25 | 6.68 | 5.49 | 6.63 | 5.18 | 6.49 | 4.95
CNC(=O)c1c(F)cccc1Nc1nc(Nc2cc3c(cc2OC)CCN3C(=O)CN(C)C)nc2[nH]ccc12 | 6.4 | 5.06 | 5.29 | 5.06 | 5.39 | 5.32 | 6 | 5.79 | 5.02 | 5.08 | 5.1 | 5.47 | 5.39 | 5.49 | 5.48 | 4.9 | 5.32 | 6.27 | 6.49 | 4.71
O=C1C(Cl)=C(NCCN2CCOCC2)C(=O)c2ncccc21 | 5.82 | 5.87 | 5.3 | 5.22 | 5.97 | 5.14 | 5.43 | 5.44 | 5.19 | 5.56 | 5.96 | 5.76 | 5.64 | 6.19 | 6.5 | 5.64 | 5.59 | 6.27 | 5.34 | 6.07
Cn1cnc2c(F)c(Nc3ccc(Br)cc3Cl)c(C(=O)NOCCO)cc21 [AZD6244] | 6.5 | < 4.3 | 5.59 | 5.84 | < 4.3 | < 4.3 | < 4.3 | < 4.3 | < 4.3 | < 4.3 | 5.57 | 6.66 | < 4.3 | < 4.3 | < 4.3 | < 4.3 | 4.96 | < 4.3 | 6.24 | < 4.3
O=c1[nH]c2ccccc2n1C1CCN(Cc2ccc(-c3[nH]c4cc5ncnc5cc4nc3-c3ccccc3)cc2)CC1 [Akt inhibitor VIII] | 5.58 | 4.86 | 5.75 | 5.08 | 5.86 | 4.82 | 5.77 | 5.35 | 5.78 | 6.08 | 5.34 | 5.12 | 5.01 | 6.2 | 5.95 | 6.16 | 5.7 | 5.85 | 5.15 | 5
Cn1c(=O)n(-c2ccc(C(C)(C)C#N)cc2)c2c3cc(-c4cnc5ccccc5c4)ccc3ncc21 [BEZ235] | 7.19 | 6.55 | 6.46 | 7.28 | 7.24 | < 4.48 | < 4.48 | 5.51 | 6.55 | 6.65 | 6.49 | 7.44 | 6.19 | 5.87 | < 4.48 | 6.68 | 6.79 | 6.8 | < 4.48 | < 4.48
CC(C)C[C@H](NC(=O)[C@H](Cc1ccccc1)NC(=O)c1cnccn1)B(O)O [Bortezomib] | 8.18 | 8.16 | 8.3 | 8.13 | 8.35 | 7.66 | 7.75 | 7.28 | 8.02 | 8.24 | 7.75 | 8.14 | 7.9 | 7.44 | 8.27 | 8 | 7.4 | 6.46 | 6.85 | 8.1
C#Cc1cccc(Nc2ncnc3cc(OCCOC)c(OCCOC)cc23)c1 [Erlotinib] | 6.64 | < 4.18 | 5.52 | 5.55 | 4.71 | 4.33 | < 4.18 | 4.75 | < 4.18 | 4.98 | 5.03 | 4.93 | 4.51 | 4.78 | < 4.18 | 4.89 | < 4.18 | < 4.18 | 4.3 | 4.41
COc1cc([C@@H]2c3cc4c(cc3[C@@H](O[C@@H]3O[C@@H]5CO[C@@H](C)O[C@H]5[C@H](O)[C@H]3O)[C@H]3COC(=O)[C@H]23)OCO4)cc(OC)c1O [Etoposide] | 5.08 | 6.02 | 4.19 | 6.01 | 5.11 | 5.69 | 5.13 | 4.47 | 5.99 | 4.63 | 6.61 | 6.11 | 5.57 | 5.37 | 5.31 | 4.99 | 4.56 | < 3.48 | 5.26 | 5.34
CO[C@H]1C[C@@H]2CC[C@@H](C)[C@@](O)(O2)C(=O)C(=O)N2CCCC[C@H]2C(=O)O[C@H]([C@H](C)C[C@@H]2CC[C@@H](OCCO)[C@H](OC)C2)CC(=O)[C@H](C)/C=C(\C)[C@@H](O)[C@@H](OC)C(=O)[C@H](C)C[C@H](C)/C=C/C=C/C=C/1C [Everolimus] | 6.16 | 4.63 | 5.1 | – | 7.93 | 4.27 | 6.46 | 5.06 | 5.92 | 7.52 | 5.23 | 6.36 | 4.85 | 5.55 | 5.8 | 7.62 | 8.12 | 7.52 | 4.7 | 6.1
